Experimental data: patent US20140023611A1 (priority 2010, published 2014)

How the values were obtained:
rat NaP2b (SLC34A2) = target: T1, rat NaP2b (SLC34A2) (Rattus norvegicus, UniProt Q9JJ09); experiment: Inhibition of NaP2b-mediated Pi (33P) uptake in transfected HEK293 cells, rat NaP2b; format: cell-based; settings: 33P Pi uptake, 0.1 mM phosphate, value given as pIC50 range
T1 construct: host or cells: HEK293
T1 sequence (Q9JJ09 1-695): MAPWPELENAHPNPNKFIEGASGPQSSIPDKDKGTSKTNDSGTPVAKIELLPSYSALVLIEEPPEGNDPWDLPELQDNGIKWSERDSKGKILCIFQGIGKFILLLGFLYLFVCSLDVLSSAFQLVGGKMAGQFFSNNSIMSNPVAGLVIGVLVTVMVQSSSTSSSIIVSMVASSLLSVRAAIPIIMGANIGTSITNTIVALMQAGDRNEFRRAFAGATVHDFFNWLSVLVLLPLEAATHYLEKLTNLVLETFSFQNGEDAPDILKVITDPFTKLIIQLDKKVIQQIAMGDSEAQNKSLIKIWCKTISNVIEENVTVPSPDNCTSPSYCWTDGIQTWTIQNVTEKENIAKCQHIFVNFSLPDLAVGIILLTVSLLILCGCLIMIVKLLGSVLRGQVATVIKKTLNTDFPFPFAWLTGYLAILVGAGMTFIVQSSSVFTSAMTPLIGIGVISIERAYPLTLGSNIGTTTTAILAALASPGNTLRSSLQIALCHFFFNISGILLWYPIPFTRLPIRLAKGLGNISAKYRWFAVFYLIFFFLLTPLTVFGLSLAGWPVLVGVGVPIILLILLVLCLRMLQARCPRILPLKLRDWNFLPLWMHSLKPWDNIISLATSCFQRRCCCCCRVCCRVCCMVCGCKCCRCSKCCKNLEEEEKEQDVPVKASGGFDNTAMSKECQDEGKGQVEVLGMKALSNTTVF
Method in brief: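 HEK293 cells were transiently transfected with NaP2b cDNA using Lipofectamine and grown near confluence. Compounds were tested at twelve concentrations from 0.1 nM to 30 uM in duplicate, and 33P-phosphate uptake was counted by scintillation after lysis. Results are expressed as pIC50.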

human NaP2b (SLC34A2) = target: T2, human NaP2b (SLC34A2) (Homo sapiens, UniProt O95436); experiment: Inhibition of NaP2b-mediated Pi (33P) uptake in transfected HEK293 cells, human NaP2b; format: cell-based; settings: read-out: pIC50 range for human NaP2b (converted)
T2 construct: host or cells: HEK293
T2 sequence (O95436 1-690): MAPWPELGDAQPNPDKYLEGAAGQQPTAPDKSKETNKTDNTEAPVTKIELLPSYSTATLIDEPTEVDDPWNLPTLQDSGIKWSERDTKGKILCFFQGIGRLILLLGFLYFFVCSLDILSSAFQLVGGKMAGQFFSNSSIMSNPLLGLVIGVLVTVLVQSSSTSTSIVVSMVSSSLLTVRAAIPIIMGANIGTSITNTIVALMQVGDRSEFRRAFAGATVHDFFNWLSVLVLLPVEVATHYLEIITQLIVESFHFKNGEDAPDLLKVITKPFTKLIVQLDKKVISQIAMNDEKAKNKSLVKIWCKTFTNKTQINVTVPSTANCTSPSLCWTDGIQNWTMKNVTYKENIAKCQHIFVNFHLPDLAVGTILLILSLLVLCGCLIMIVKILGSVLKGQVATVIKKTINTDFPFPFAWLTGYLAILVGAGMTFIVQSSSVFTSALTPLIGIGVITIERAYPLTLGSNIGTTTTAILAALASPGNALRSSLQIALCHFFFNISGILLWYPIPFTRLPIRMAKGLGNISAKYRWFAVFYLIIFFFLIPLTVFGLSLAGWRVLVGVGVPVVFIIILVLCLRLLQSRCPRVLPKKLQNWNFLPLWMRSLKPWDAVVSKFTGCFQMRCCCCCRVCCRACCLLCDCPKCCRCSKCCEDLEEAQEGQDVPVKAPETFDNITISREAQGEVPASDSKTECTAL
Description: HEK293 cells were obtained from the American Type Culture collection and propagated per their instructions. Expression clones for rat and human NaP2b (SLC34A2) were obtained from Open Biosystems (Catalog numbers MRN1768-9510282, and MHS1010-99823026, respectively). The sequence of the human protein was mutated to insert a threonine after residue 37, and to introduce a N39D mutation.
The rate of phosphate (Pi) uptake into HEK293 cells was measured using a modification of the method described by Mohrmann et al. (Mohrmann, I., Mohrmann, M., Biber, J., and Murer, H. (1986) Am. J. Phys. 250(3 Pt 1):G323-30.) Transfected HEK293 cells were treated with a pharmacological agent to minimize endogenous PiT-mediated phosphate transport activity, such that the only remaining sodium-dependent phosphate transport activity is that which was bestowed by introduction of the NaP2b genes.
Cells were seeded into 96-well plates at 25,000 cells/well and cultured overnight. Lipofectamine 2000 (Invitrogen) was used to introduce the NaP2b cDNA, and the cells were allowed to approach confluence during a second overnight incubation. […] Cells were then overlayed with either choline uptake buffer or sodium uptake buffer (14 mM Tris, 137 mM sodium chloride, 5.4 mM KCl, 2.8 mM CaCl2, 1.2 mM MgSO4, 100 uM KH2PO4, PiT-silencing agent, 1 mg/mL Bovine Serum Albumin, pH 7.4) containing 6-9 uCi/mL ^33P orthophosphoric acid (Perkin Elmer) and test compound. Each compound was tested at twelve concentrations ranging from 0.1 nM to 30 uM. Assays were run in duplicate.
After incubation for 3-30 minutes at room temperature, assay mixtures were removed, and the cells were washed twice with ice cold stop solution (137 mM sodium chloride, 14 mM Tris, pH 7.4). Cells were lysed by addition of 20 μL 0.1% Tween 80 followed by 100 μL scintillation fluid, and counted using a TopCount (Perkin Elmer).
pIC50 (the negative log of the IC50) values of the test compounds were calculated using GraphPad Prism.

| SMILES | IC50 (rat NaP2b (SLC34A2)) [µM] | IC50 (human NaP2b (SLC34A2)) [µM] |
| --- | --- | --- |
| CCN(CC)c1ccc(NC(=O)c2cccc(C(=O)N(C)CCN(CCOC)CCOCCOCCOCCC(=O)NC(C)(C)C)c2)c(-c2cc(C(=O)NCc3cccc(C(F)(F)F)c3)ccn2)c1 [Example 337, N^1-(4-(Diethylamino)-2-(4-(3-(trifluoromethyl)benzylcarbamoyl)pyridin-2-yl)phenyl)-N3-(3-(2-methoxyethyl)-17,17-dimethyl-15-oxo-6,9,12-trioxa-3,16-diazaoctadecyl)-N^3-methylisophthalamide] | 1 to 7.94 | 1 to 7.94 |
| O=C(O)CCSCc1cccc(C(=O)Nc2ccc(N3CCCCC3)cc2-c2cc(Nc3cccc(C(F)(F)F)c3)ncn2)c1 [Example 3.10, 3-((3-((4-(Piperidin-1-yl)-2-(6-((3-(trifluoromethyl)phenyl)amino)pyrimidin-4-yl)phenyl)carbamoyl)benzyl)thio)propanoic acid] | 1 to 7.94 | 10 to 31.6 |
| CCN(CC)c1ccc(NC(=O)c2cccc(COCCOCCOCCOCCOC(=O)NCCOCCOCCOCCOCCOCCOCCOC)c2)c(-c2cc(C(=O)NCc3cccc(C(F)(F)F)c3)ccn2)c1 [Example 175, 1-(3-(4-(diethylamino)-2-(4-(3-(trifluoromethyl)benzylcarbamoyl)pyridin-2-yl)phenylcarbamoyl)phenyl)-2,5,8,11-tetraoxamidecan-13-yl 2,5,8,11,14,17,20-heptaoxadocosan-22-ylcarbamate] | 1 to 7.94 | 1 to 7.94 |
| CCN(CC)c1ccc(NC(=O)c2cccc(C(=O)N(C)CCN3CCN(C(=O)N(C)CCOCCOCCOCCC(=O)N4CCN(CCOCCO)CC4)CC3)c2)c(-c2cc(C(=O)N[C@H]3CCCc4ccccc43)ccn2)c1 [Example 231, 3-N-[4-(diethylamino)-2-(4-{[(1S)-1,2,3,4-tetrahydronaphthalen-1-yl]carbamoyl}pyridin-2-yl)phenyl]-1-N-(2-{4-[(2-{2-[2-(3-{4-[2-(2-hydroxyethoxy)ethyl]piperazin-1-yl}-3-oxopropoxy)ethoxy]ethoxy}ethyl)(methyl)carbamoyl]piperazin-1-yl}ethyl)-1-N-methylbenzene-1,3-dicarboxamide] | 10 to 31.6 | 10 to 31.6 |
| CCN(CC)c1ccc(NC(=O)c2cccc(CCCOCCOCCOCCOCCO)c2)c(-c2cc(C(=O)NCc3cccc(C(F)(F)F)c3)ccn2)c1 [Example 267, 2-(5-(diethylamino)-2-(3-(1-hydroxy-3,6,9,12-tetraoxapentadecan-15-yl)benzamido)phenyl)-N-(3-(trifluoromethyl)benzyl)isonicotinamide] | < 1 | < 1 |
| CN(CCN1CCOCC1)C(=O)c1cccc(C(=O)Nc2ccc(N3CCCCC3)cc2-c2cc(C(=O)N[C@@H]3CCCc4ccccc43)ccn2)c1 [Example 97] | 1 to 7.94 | 1 to 7.94 |
| CCN(CC)c1ccc(NC(=O)c2cccc(C(=O)N(C)CCN(C)CCOCCOCCOCCNS(C)(=O)=O)c2)c(-c2cc(C(=O)N[C@H]3CCCc4ccccc43)ccn2)c1 [Example 226, 3-N-[4-(diethylamino)-2-(4-{[(1S)-1,2,3,4-tetrahydronaphthalen-1-yl]carbamoyl}pyridin-2-yl)phenyl]-1-N-(1-methanesulfonamido-12-methyl-3,6,9-trioxa-12-azatetradecan-14-yl)-1-N-methylbenzene-1,3-dicarboxamide] | < 1 | 1 to 7.94 |
| CCN(CC)c1ccc(NC(=O)c2cccc(CCCOCCOCCOCCOCCOCC(CO)(CO)CO)c2)c(-c2cc(C(=O)NCc3cccc(C(F)(F)F)c3)ccn2)c1 [Example 332, N-(3-(trifluoromethyl)benzyl)-2-(5-(diethylamino)-2-(3-(3-(2-(2-(2-(2-(3-hydroxy-2,2-bis(hydroxymethyl)propoxy)ethoxy)ethoxy)ethoxy)ethoxy)propyl)benzamido)phenyl)isonicotinamide] | < 1 | < 1 |
| CCN(CC)c1ccc(NC(=O)c2cccc(C(=O)N(C)CCN(C)CCOCCOCCOCCN=[N+]=[N-])c2)c(-c2cc(C(=O)N[C@H]3CCCc4ccccc43)ccn2)c1 [Example 222, (S)—N1-(14-azido-3-methyl-6,9,12-trioxa-3-azatetradecyl)-N3-(4-(diethylamino)-2-(4-(1,2,3,4-tetrahydronaphthalen-1-ylcarbamoyl)pyridin-2-yl)phenyl)-N1-methylisophthalamide] | < 1 | < 1 |
| CC(C)(C)OC(=O)CCOCCOCCOCCOCCCc1cccc(C(=O)Nc2ccc(OC3CCC3)cc2-c2cc(C(=O)N[C@H]3CCCc4ccccc43)ccn2)c1 [Example 284, (S)-tert-butyl 16-(3-((4-cyclobutoxy-2-(4-((1,2,3,4-tetrahydronaphthalen-1-yl)carbamoyl)pyridin-2-yl)phenyl)carbamoyl)phenyl)-4,7,10,13-tetraoxahexadecan-1-oate] | 1 to 7.94 | 1 to 7.94 |
| CCN(CC)c1ccc(NC(=O)c2cccc(C(=O)N(C)CCN3CCCC[C@H]3C(=O)NCCOCCOCCOCCOCCOCCOCCOCCOC)c2)c(-c2cc(C(=O)NCc3cccc(C(F)(F)F)c3)ccn2)c1 [Example 201, (S)—N^1-(2-(2-(2,5,8,11,14,17,20,23-octaoxapentacosan-25-yl-carbamoyl)piperidin-1-yl)ethyl)-N^3-(4-(diethylamino)-2-(4-((3-(trifluoromethyl)benzyl)carbamoyl)pyridin-2-yl)phenyl)-N^1-methylisophthalamide] | 1 to 7.94 | 1 to 7.94 |
| COc1ccc(CNc2cc(-c3cc(N4CCCCC4)ccc3NC(=O)c3cccc(CSCCC(=O)O)c3)ncn2)cc1OC [Example 3.6, 3-((3-((2-(6-((3,4-Dimethoxybenzyl)amino)pyrimidin-4-yl)-4-(piperidin-1-yl)phenyl)carbamoyl)benzyl)thio)propanoic acid] | 10 to 31.6 | 10 to 31.6 |
| O=C(O)CCSCc1cccc(C(=O)Nc2ccc(N3CCCCC3)cc2-c2cc(NCc3ccccc3)ncn2)c1 [Example 3.7, 3-((3-((2-(6-(Benzylamino)pyrimidin-4-yl)-4-(piperidin-1-yl)phenyl)carbamoyl)benzyl)thio)propanoic acid] | 10 to 31.6 | 10 to 31.6 |
| O=C(O)CCOCCOCCOCCOCCCc1cccc(C(=O)Nc2ccc(N3CCCCC3)cc2-c2cc(C(=O)NCc3cccc(C(F)(F)F)c3)ccn2)c1 [Example 303, 16-(3-(4-(piperidin-1-yl)-2-(4-(3-(trifluoromethyl)benzylcarbamoyl)pyridin-2-yl)phenylcarbamoyl)phenyl)-4,7,10,13-tetraoxahexadecan-1-oic acid] | 1 to 7.94 | < 1 |
